Tests used:
Assay in all cases: relative viability (nuclei count vs DMSO), 5 days (fraction); higher = more cells survive
[1] = test system: LXF-289
Outline: (§1)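 Five library-drug doses in √10 steps were combined with a fixed anchor-drug dose, or a single drug was given alone, by pin tool to lung cancer cell lines in 1536-well plates the day after seeding. Nuclei were stained and counted after 5 days. Relative viability is the nuclei count in treated wells over that in vehicle wells, taken as the median of duplicate plates.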

[2] = test system: HARA
Outline: as §1

[3] = test system: H3255
Outline: as §1

[4] = test system: NCI-H2405
Outline: as §1

[5] = test system: NCI-H1437
Outline: as §1

[6] = test system: NCI-H23
Outline: as §1

[7] = test system: NCI-H2085
Outline: as §1

[8] = test system: BEN
Outline: as §1

[9] = test system: COR-L 105
Outline: as §1

[10] = test system: HCC-827
Outline: as §1

[11] = test system: NCI-H2228
Outline: as §1

[12] = test system: LC-2-ad
Outline: as §1

In the case of O=c1[nH]c2ccccc2n1C1CCN(CCCC(c2ccc(F)cc2)c2ccc(F)cc2)CC1 [Pimozide] + COc1cccc2cc(-c3nc([C@H]4CC[C@H](C(=O)O)CC4)n4ncnc(N)c34)[nH]c12 [OSI-027] (partner 0.5 µM), the relative viability ([1]; first compound 0.08 µM) is reported as 0.693, the relative viability ([1]; first compound 0.253 µM) is reported as 0.786 and the relative viability ([1]; first compound 0.8 µM) is reported as 0.773. The relative viability ([1]; first compound 2.53 µM) was 0.811, the relative viability ([1]; first compound 8 µM) was 0.716 and the relative viability ([2]; first compound 0.253 µM) was 0.518. It also gave a relative viability ([2]; first compound 0.8 µM) of 0.196, a relative viability ([2]; first compound 2.53 µM) of 0.384 and a relative viability ([2]; first compound 8 µM) of 0.264. It also gave a relative viability ([3]; first compound 0.253 µM) of 0.514, a relative viability ([3]; first compound 0.8 µM) of 0.563 and a relative viability ([3]; first compound 2.53 µM) of 0.6. For the same compound, the relative viability ([3]; first compound 8 µM) was 0.584, the relative viability ([4]; first compound 0.08 µM) was 0.654 and the relative viability ([4]; first compound 0.253 µM) was 0.576. For the same compound, the relative viability ([4]; first compound 0.8 µM) was 0.689, the relative viability ([4]; first compound 2.53 µM) was 0.665 and the relative viability ([4]; first compound 8 µM) was 0.707. It also gave a relative viability ([5]; first compound 0.08 µM) of 0.93, a relative viability ([5]; first compound 0.253 µM) of 0.888 and a relative viability ([5]; first compound 0.8 µM) of 0.883. The relative viability ([5]; first compound 2.53 µM) was 0.89, the relative viability ([5]; first compound 8 µM) was 0.676 and the relative viability ([6]; first compound 0.08 µM) was 0.696. It also gave a relative viability ([6]; first compound 0.253 µM) of 0.603, a relative viability ([6]; first compound 0.8 µM) of 0.379 and a relative viability ([6]; first compound 2.53 µM) of 0.443. It also gave a relative viability ([6]; first compound 8 µM) of 0.477, a relative viability ([7]; first compound 0.08 µM) of 0.59 and a relative viability ([7]; first compound 0.253 µM) of 0.736. The relative viability ([7]; first compound 0.8 µM) was 0.701, the relative viability ([7]; first compound 2.53 µM) was 0.709 and the relative viability ([7]; first compound 8 µM) was 0.61. For the same compound, the relative viability ([8]; first compound 0.08 µM) was 0.275, the relative viability ([8]; first compound 0.253 µM) was 0.293 and the relative viability ([8]; first compound 0.8 µM) was 0.307. The relative viability ([8]; first compound 2.53 µM) was 0.321, the relative viability ([8]; first compound 8 µM) was 0.304 and the relative viability ([9]; first compound 0.253 µM) was 0.778. The relative viability ([9]; first compound 0.8 µM) was 0.617, the relative viability ([9]; first compound 2.53 µM) was 0.64 and the relative viability ([9]; first compound 8 µM) was 0.58. It also gave a relative viability ([10]; first compound 0.253 µM) of 0.801, a relative viability ([10]; first compound 0.8 µM) of 0.738 and a relative viability ([10]; first compound 2.53 µM) of 0.782. The relative viability ([10]; first compound 8 µM) was 0.769, the relative viability ([11]; first compound 0.08 µM) was 0.537 and the relative viability ([11]; first compound 0.253 µM) was 0.644. The relative viability ([11]; first compound 0.8 µM) was 0.587, the relative viability ([11]; first compound 2.53 µM) was 0.451 and the relative viability ([11]; first compound 8 µM) was 0.221. For the same compound, the relative viability ([12]; first compound 0.08 µM) was 0.694, the relative viability ([12]; first compound 0.253 µM) was 0.875 and the relative viability ([12]; first compound 0.8 µM) was 0.735. The relative viability ([12]; first compound 2.53 µM) was 0.681.
